The results in this text go back to patent US9873709B2 (priority 2013, dated 2018).

For this assay, the system named is JAK1-dependent STAT6 phosphorylation downstream of IL-13 stimulation in TF-1 human erythroleukemia cells. The assay is described as follows: cells. The following applies: TF-1, read-out: IL-13-pSTAT6 IC50.
In the case of `CCOC(=O)N1CC=C(c2cccn3nc(Nc4ccc(C(=O)N5CC6(CCNC6)C5)cc4)nc23)CC1` [Example 2-372, ethyl 4-[2-[4-(2,7-diazaspiro[3.4]octane-2-carbonyl)anilino]-[1,2,4]triazolo[1,5-a]pyridin-8-yl]-3,6-dihydro-2H-pyridine-1-carboxylate], the IC50 was found to be 296 nM.
The value for `CCOC(=O)N1CC=C(c2cccn3nc(Nc4ccc(C(=O)N(C)CCN)cc4)nc23)CC1` [Example 2-374, ethyl 4-[2-[4-[2-aminoethyl(methyl)carbamoyl]anilino]-[1,2,4]triazolo[1,5-a]pyridin-8-yl]-3,6-dihydro-2H-pyridine-1-carboxylate] was 62.5 nM.
Under `O=C(CCC(F)(F)F)N1CC=C(c2cccn3nc(Nc4ccc(C(=O)N5CCC6(CCCN6)C5)cc4)nc23)CC1` (stereo not shown) [Example 2-377, 1-[4-[2-[4-(1,7-diazaspiro[4.4]nonane-7-carbonyl)anilino]-[1,2,4]triazolo[1,5-a]pyridin-8-yl]-3,6-dihydro-2H-pyridin-1-yl]-4,4,4-trifluoro-butan-1-one] stands 55.5 nM; under `O=C(CCC(F)(F)F)N1CC=C(c2cccn3nc(Nc4ccc(C(=O)N5CCC6(CCCCN6)C5)cc4)nc23)CC1` (stereo not shown) [Example 2-378, 1-[4-[2-[4-(2,6-diazaspiro[4.5]decane-2-carbonyl)anilino]-[1,2,4]triazolo[1,5-a]pyridin-8-yl]-3,6-dihydro-2H-pyridin-1-yl]-4,4,4-trifluoro-butan-1-one], 238 nM.
Under `O=C(CCC(F)(F)F)N1CC=C(c2cccn3nc(Nc4ccc(C(=O)N5CCC6(CNC6)C5)cc4)nc23)CC1` [Example 2-379, 1-[4-[2-[4-(2,6-diazaspiro[3,4]octane-6-carbonyl)anilino]-[1,2,4]triazolo[1,5-a]pyridin-8-yl]-3,6-dihydro-2H-pyridin-1-yl]-4,4,4-trifluoro-butan-1-one] stands 282 nM.
As for `O=C(CCC(F)(F)F)N1CC=C(c2cccn3nc(Nc4ccc(C(=O)N5CCC6(CC5)CNCCO6)cc4)nc23)CC1` [Example 2-380, 4,4,4-trifluoro-1-[4-[2-[4-(1-oxa-4,9-diazaspiro[5.5]undecane-9-carbonyl)anilino]-[1,2,4]triazolo[1,5-a]pyridin-8-yl]-3,6-dihydro-2H-pyridin-1-yl]butan-1-one], the half-inhibitory concentration (IC50) was found to be 38.4 nM.
As for `O=C(CCC(F)(F)F)N1CC=C(c2cccn3nc(Nc4ccc(C(=O)N5CCCC6(CCNCC6)C5)cc4)nc23)CC1` [Example 2-382, 1-[4-[2-[4-(2,9-diazaspiro[5.5]undecane-2-carbonyl)anilino]-[1,2,4]triazolo[1,5-a]pyridin-8-yl]-3,6-dihydro-2H-pyridin-1-yl]-4,4,4-trifluoro-butan-1-one], the IC50 was determined as 376 nM.
Under `O=C(CCC(F)(F)F)N1CC=C(c2cccn3nc(Nc4ccc(C(=O)N5CCCC6(CCCCN6)C5)cc4)nc23)CC1` (stereo not shown) [Example 2-383, 1-[4-[2-[4-(1,8-diazaspiro[5.5]undecane-8-carbonyl)anilino]-[1,2,4]triazolo[1,5-a]pyridin-8-yl]-3,6-dihydro-2H-pyridin-1-yl]-4,4,4-trifluoro-butan-1-one] stands 9 nM; under `O=C(CCC(F)(F)F)N1CC=C(c2cccn3nc(Nc4ccc(C(=O)N5CCCC6(CCCN6)CC5)cc4)nc23)CC1` (stereo not shown) [Example 2-384, 1-[4-[2-[4-(1,9-diazaspiro[4.6]undecane-9-carbonyl)anilino]-[1,2,4]triazolo[1,5-a]pyridin-8-yl]-3,6-dihydro-2H-pyridin-1-yl]-4,4,4-trifluoro-butan-1-one], 93 nM.
Under `O=C(NCC1CCCCN1)c1ccc(Nc2nc3c(C4=CCN(C(=O)CCC(F)(F)F)CC4)cccn3n2)cc1` (stereo not shown) [Example 2-385, N-(2-piperidylmethyl)-4-[[8-[1-(4,4,4-trifluorobutanoyl)-3,6-dihydro-2H-pyridin-4-yl]-[1,2,4]triazolo[1,5-a]pyridin-2-yl]amino]benzamide] stands 174 nM.
In the case of `O=C(CCC(F)(F)F)N1CC=C(c2cccn3nc(Nc4ccc(C(=O)N5CCC6CNCC65)cc4)nc23)CC1` (stereo not shown) [Example 2-386, 1-[4-[2-[4-(3,3a,4,5,6,6a-hexahydro-2H-pyrrolo[2,3-c]pyrrole-1-carbonyl)anilino]-[1,2,4]triazolo[1,5-a]pyridin-8-yl]-3,6-dihydro-2H-pyridin-1-yl]-4,4,4-trifluoro-butan-1-one], the 50% inhibitory concentration (IC50) turned out to be 155 nM.
As to `O=C(CCC(F)(F)F)N1CC=C(c2cccn3nc(Nc4ccc(C(=O)N5C[C@@H]6CCN[C@@H]6C5)cc4)nc23)CC1` [Example 2-387, 1-[4-[2-[4-[(3aS,6aS)-2,3,3a,4,6,6a-hexahydro-1H-pyrrolo[2,3-c]pyrrole-5-carbonyl]anilino]-[1,2,4]triazolo[1,5-a]pyridin-8-yl]-3,6-dihydro-2H-pyridin-1-yl]-4,4,4-trifluoro-butan-1-one], the IC50 came out at 147 nM.
The value for `O=C(NCC1CC12CCNCC2)c1ccc(Nc2nc3c(C4=CCN(C(=O)CCC(F)(F)F)CC4)cccn3n2)cc1` (stereo not shown) [Example 2-388, N-(6-azaspiro[2.5]octan-2-ylmethyl)-4-[[8-[1-(4,4,4-trifluorobutanoyl)-3,6-dihydro-2H-pyridin-4-yl]-[1,2,4]triazolo[1,5-a]pyridin-2-yl]amino]benzamide] was 141 nM; that for `CN1CCCC(CN(C)C(=O)c2ccc(Nc3nc4c(C5=CCN(C(=O)CCC(F)(F)F)CC5)cccn4n3)cc2)C1` (stereo not shown) [Example 2-389, N-methyl-N-[(1-methyl-3-piperidyl)methyl]-4-[[8-[1-(4,4,4-trifluorobutanoyl)-3,6-dihydro-2H-pyridin-4-yl]-[1,2,4]triazolo[1,5-a]pyridin-2-yl]amino]benzamide] was 12.6 nM.
The value for `O=C(CCC(F)(F)F)N1CC=C(c2cccn3nc(Nc4ccc(C(=O)N5CCCC(O)(CN6CCCC6)CC5)cc4)nc23)CC1` (stereo not shown) [Example 2-390, 4,4,4-trifluoro-1-[4-[2-[4-[4-hydroxy-4-(pyrrolidin-1-ylmethyl)azepane-1-carbonyl]anilino]-[1,2,4]triazolo[1,5-a]pyridin-8-yl]-3,6-dihydro-2H-pyridin-1-yl]butan-1-one] was 178 nM; that for `CN1CCC2(CC1)CN(C(=O)c1ccc(Nc3nc4c(C5=CCN(C(=O)CCC(F)(F)F)CC5)cccn4n3)cc1)C2` [Example 2-391, 4,4,4-trifluoro-1-[4-[2-[4-(7-methyl-2,7-diazaspiro[3.5]nonane-2-carbonyl)anilino]-[1,2,4]triazolo[1,5-a]pyridin-8-yl]-3,6-dihydro-2H-pyridin-1-yl]butan-1-one] was 5.7 nM; that for `O=C(CCC(F)(F)F)N1CC=C(c2cccn3nc(Nc4ccc(C(=O)N5CC6(CNC6)C5)cc4)nc23)CC1` [Example 2-392, 1-[4-[2-[4-(2,6-diazaspiro[3.3]heptane-2-carbonyl)anilino]-[1,2,4]triazolo[1,5-a]pyridin-8-yl]-3,6-dihydro-2H-pyridin-1-yl]-4,4,4-trifluoro-butan-1-one] was 217 nM.
Under `CN1CCN(C2CCN(C(=O)c3ccc(Nc4nc5c(C6=CCN(C(=O)CCC(F)(F)F)CC6)cccn5n4)cc3)CC2)CC1` [Example 2-393, 4,4,4-trifluoro-1-[4-[2-[4-[4-(4-methylpiperazin-1-yl)piperidine-1-carbonyl]anilino]-[1,2,4]triazolo[1,5-a]pyridin-8-yl]-3,6-dihydro-2H-pyridin-1-yl]butan-1-one] stands 23.4 nM; under `O=C(CCC(F)(F)F)N1CC=C(c2cccn3nc(Nc4ccc(C(=O)N5CCN(Cc6cccnc6)CC5)cc4)nc23)CC1` [Example 2-394, 4,4,4-trifluoro-1-[4-[2-[4-[4-(3-pyridylmethyl)piperazine-1-carbonyl]anilino]-[1,2,4]triazolo[1,5-a]pyridin-8-yl]-3,6-dihydro-2H-pyridin-1-yl]butan-1-one], 4 nM.
On to `O=C(CCC(F)(F)F)N1CC=C(c2cccn3nc(Nc4ccc(C(=O)N5CCN(c6cccnc6)CC5)cc4)nc23)CC1` [Example 2-395, 4,4,4-trifluoro-1-[4-[2-[4-[4-(3-pyridyl)piperazine-1-carbonyl]anilino]-[1,2,4]triazolo[1,5-a]pyridin-8-yl]-3,6-dihydro-2H-pyridin-1-yl]butan-1-one], for which the concentration for half-maximal inhibition (IC50) amounted to 4.6 nM.
As for `O=C(CCC(F)(F)F)N1CC=C(c2cccn3nc(Nc4ccc(C(=O)N5CCCC5Cc5ccccn5)cc4)nc23)CC1` (stereo not shown) [Example 2-396, 4,4,4-trifluoro-1-[4-[2-[4-[2-(2-pyridylmethyl)pyrrolidine-1-carbonyl]anilino]-[1,2,4]triazolo[1,5-a]pyridin-8-yl]-3,6-dihydro-2H-pyridin-1-yl]butan-1-one], the concentration for half-maximal inhibition (IC50) worked out at 5.4 nM.
Take `O=C(CCC(F)(F)F)N1CC=C(c2cccn3nc(Nc4ccc(C(=O)N5CCN(c6ccccn6)CC5)cc4)nc23)CC1` [Example 2-397, 4,4,4-trifluoro-1-[4-[2-[4-[4-(2-pyridyl)piperazine-1-carbonyl]anilino]-[1,2,4]triazolo[1,5-a]pyridin-8-yl]-3,6-dihydro-2H-pyridin-1-yl]butan-1-one]: the IC50 came to 20.2 nM.
Under `O=C(CCC(F)(F)F)N1CC=C(c2cccn3nc(Nc4ccc(C(=O)N5CCN(CC6CC6)CC5)cc4)nc23)CC1` [Example 2-398, 1-[4-[2-[4-[4-(cyclopropylmethyl)piperazine-1-carbonyl]anilino]-[1,2,4]triazolo[1,5-a]pyridin-8-yl]-3,6-dihydro-2H-pyridin-1-yl]-4,4,4-trifluoro-butan-1-one] stands 8.6 nM; under `CC(CN(C)C)NC(=O)c1ccc(Nc2nc3c(C4=CCN(C(=O)CCC(F)(F)F)CC4)cccn3n2)cc1` (stereo not shown) [Example 2-399, N-[2-(dimethylamino)-1-methyl-ethyl]-4-[[8-[1-(4,4,4-trifluorobutanoyl)-3,6-dihydro-2H-pyridin-4-yl]-[1,2,4]triazolo[1,5-a]pyridin-2-yl]amino]benzamide], 12.1 nM.
Under `CCCN1CCC(N(C(=O)c2ccc(Nc3nc4c(C5=CCN(C(=O)CCC(F)(F)F)CC5)cccn4n3)cc2)C2CC2)CC1` [Example 2-400, N-cyclopropyl-N-(1-propyl-4-piperidyl)-4-[[8-[1-(4,4,4-trifluorobutanoyl)-3,6-dihydro-2H-pyridin-4-yl]-[1,2,4]triazolo[1,5-a]pyridin-2-yl]amino]benzamide] stands 6.8 nM.
